Measured values reported in the NIST ThermoML archive (doi:10.1016/j.jct.2006.01.013).

Details: 101.33 kPa, Liquid

CCCCCC[n+]1ccn(C)c1.O=S(=O)([N-]S(=O)(=O)C(F)(F)F)C(F)(F)F
Details	mass density [kg/m3]
290.95 K	1378.1
292.95 K	1376.3
294.95 K	1374.4
296.95 K	1372.6
299 K	1370.8
301 K	1369
303 K	1367.2
305.05 K	1365.3
307.05 K	1363.5
